Holding throughout (type): cell-based
Holding throughout (details): 100 nM for 48 hr versus DMSO

One assay deals with AsPC-1 cells. The assay can be described thus: expression of DNA repair genes by qRT-PCR, AsPC-1 cells. The procedure: (§1) Tumors were homogenised in RLT buffer using a polytron homogenizer. Total RNA was isolated using RNAeasy kit (Qiagen, Germany) according to manufacturer's protocol. For qPT-PCR, RNA was reverse transcribed with iScript reverse transcriptase (BioRAD, Hercules, Calif., USA). Real time quantitative PCR (qPCR) was performed using SsoFast EvaGreen assay Supermix from BioRad (Hercules, Calif., USA). EPN1 and ACTB were used as housekeeping genes.
(§2) Inhibition of Wnt signalling reduces expression of DNA repair genes: HPAF-II, AsPC-1 or PaTu899S cells were treated with either DMSO or 100 nM compound of Formula (I) for 48 hr. The expression of the indicated genes was measured by qRT-PCR. FIGS. 14-16 illustrates the results.
On the technique in general: Real-time PCR tracks product formation cycle by cycle.

Another assay deals with HPAF-II cells. The assay can be described thus: expression of DNA repair genes by qRT-PCR, HPAF-II cells. The procedure:
as §1, §2

For the next assay, the system named is PaTu899S cells. Description: expression of DNA repair genes by qRT-PCR, PaTu899S cells. The protocol:
as §1, §2

For `Cn1c(=O)c2c(ncn2CC(=O)Nc2ccc(-c3ccccc3)nn2)n(C)c1=O` [Ex 1, 2-(1,3-dimethyl-2,6-dioxo-2,3-dihydro-1H-purin-7 (6H)-yl)-N-(6-phenylpyridazin-3-yl)acetamide], the “expression of DNA repair genes BRCA1, BRCA2, FANCD2, FANCG, RAD51 and XRCC3” value with AsPC-1 cells, in the assay on HPAF-II cells and in the assay on PaTu899S cells was “inhibited the expression of DNA repair genes” in each case.

The record behind these values is patent US20230076733A1, “Combination Therapy” (AGENCY FOR SCIENCE, TECHNOLOGY AND RESEARCH, priority 2020, published 2023).
